What was measured:
[1] = test system: ob/ob mouse; assay: Antidiabetic and hypolipaemic effect in the ob/ob mouse; type: in vivo; conditions: male ob/ob mouse, 3 mg/kg oral once per day for four days, measured 24 hours after the final administration
From the text: Mutations in laboratory animals and also different sensitivities to dietary regimens have allowed the development of animal models having non-insulin-dependent diabetes and hyperlipidaemia associated with obesity and with resistance to insulin. Genetic mice models (ob/ob) (Diabetes, 1982, 31 (1), 1-6) and Zucker (fa/fa) rats have been developed by various laboratories in order to understand the physiopathology of those diseases and test the effectiveness of new antidiabetic compounds (Diabetes, 1983, 32, 830-838).
Antidiabetic and Hypolipaemic Effect in the ob/ob Mouse
The 10-week-old male ob/ob mouse (Harlan) is used for the in vivo tests. The animals are kept in a light-darkness cycle of 12 hours at 25° C. This mouse has a basal hyperglycaemia of 2 g/l. The animals are randomly selected with regard to their glycaemia to form groups of eight. The compounds tested by the oral route are dissolved in a mixture of hydroxyethyl cellulose (HEC 1%) to be administered at 3 mg/kg in a volume of 10 ml/kg once per day for four days. The control group receives the solvents under the same conditions as the treated groups. The activity of the products is evaluated by measuring glycaemia, triglyceridaemia and insulinaemia 24 hours after the final administration and by measuring body weight daily.

Row | melting point | Structure (SMILES) | reduction in glycaemia compared with the control [1] [%] | reduction in insulinaemia compared with the control group [1] [%] | reduction in triglyceridaemia compared with the control group [1] [%]
1 | 182 °C (dec.) | CON=C(c1ccccc1)c1cnc2c(ccn2CCOc2ccc(CC(OCC(F)(F)F)C(=O)O)cc2)c1 (stereo not drawn) [Example 14, 3-[4-(2-{5-[(Methoxyimino)(phenyl)methyl]-1H-pyrrolo[2,3-b]pyridin-1-yl}ethoxy)phenyl]-2-(2,2,2-trifluoroethoxy)propanoic acid] |  |  | 
2 | 186 °C | CO/N=C(/c1ccccc1)c1cnc2c(ccn2CCOc2ccc(CC(OCC(F)(F)F)C(=O)O)cc2)c1Cl (stereo not drawn) [Example 16, 3-[4-(2-{4-Chloro-5-[(Z)-(methoxyimino)(phenyl)methyl]-1H-pyrrolo[2,3-b]pyridin-1-yl}ethoxy)phenyl]-2-(2,2,2-trifluoro-ethoxy)propanoic acid] |  |  | 
3 |  | CON=C(c1ccccc1)c1ccc2ccn(CCOc3ccc(C[C@H](OCC(F)(F)F)C(=O)O)cc3)c2n1 [Example 32, (2S)-3-[4-(2-{6-[(Methoxyimino) (phenyl)methyl]-1H-pyrrolo[2,3-b]pyridin-1-yl}ethoxy)phenyl]-2-(2,2,2-trifluoroethoxy)propanoic acid] | 43 | 23 | 37
4 | 145 °C | CCOC(Cc1ccc(OCCn2ccc3cc(C(=NOC)c4ccccc4)cnc32)cc1)C(=O)OC (stereo not drawn) [Example 11, Methyl 2-ethoxy-3-[4-(2-{5-[(methoxyimino)(phenyl)methyl]-1H-pyrrolo[2,3-b]pyridin-1-yl}ethoxy)phenyl]propanoate] |  |  | 

Source: patent publication US20090274674A1, “Heterocyclic Oxime Compounds, Process for Their Preparation and Pharmaceutical Compositions Containing Them” (LES LABORATOIRES SERVIER, priority 2005, published 2009)
